Results from PMC6842527, “Molecular cloning and metabolomic characterization of the 5-enolpyruvylshikimate-3-phosphate synthase gene from Baphicacanthus cusia” (BMC Plant Biology, 2019).

Target: T1, BcEPSPS (5-enolpyruvylshikimate-3-phosphate synthase)
T1 construct: gene EPSPS; full-length coding region (518 aa) in pET-32a, His-tagged fusion BcEPSPS-His, expressed in E. coli BL21
Test: malachite green phosphate-release enzyme assay with purified recombinant BcEPSPS; Ki at […] S3P (IC50 […] also reported)
Assay type: biochemical, Baphicacanthus cusia

O=C(O)CNCP(=O)(O)O [glyphosate]
Ki: 46 nM
